According to patent US5166162A, “Pyridylsulfonylurea and pyridylsulfonylthiourea compounds” (Adir et Compagnie, priority 1990, dated 1992):

Experiments:
[1] = Determination of pKa (proton acidity constant of SO2-NH-CO-); type: physicochemical
Source text: The pKa values represent the proton acidity constants of SO2 --NH--CO--.

[2] = Determination of partition coefficients between n-octanol and water; type: physicochemical; details: pH=7.4, logarithm to base 10
Procedure: The coefficients of partition between n-octanol and water were determined at pH=7.4 by conventional techniques and are expressed as logarithms to base 10 (Log P).

[3] = target: T1, Na^+ /K^+ /2Cl^- cotransport (Rattus norvegicus, UniProt E9PTX9); assay: Inhibition of Na+/K+/2Cl- cotransport, erythrocyte membrane in normotensive rats; type: in vivo
T1 construct: erythrocyte membrane in normotensive rats; from tissue; host or cells: rat erythrocytes
T1 sequence (E9PTX9 1-1203): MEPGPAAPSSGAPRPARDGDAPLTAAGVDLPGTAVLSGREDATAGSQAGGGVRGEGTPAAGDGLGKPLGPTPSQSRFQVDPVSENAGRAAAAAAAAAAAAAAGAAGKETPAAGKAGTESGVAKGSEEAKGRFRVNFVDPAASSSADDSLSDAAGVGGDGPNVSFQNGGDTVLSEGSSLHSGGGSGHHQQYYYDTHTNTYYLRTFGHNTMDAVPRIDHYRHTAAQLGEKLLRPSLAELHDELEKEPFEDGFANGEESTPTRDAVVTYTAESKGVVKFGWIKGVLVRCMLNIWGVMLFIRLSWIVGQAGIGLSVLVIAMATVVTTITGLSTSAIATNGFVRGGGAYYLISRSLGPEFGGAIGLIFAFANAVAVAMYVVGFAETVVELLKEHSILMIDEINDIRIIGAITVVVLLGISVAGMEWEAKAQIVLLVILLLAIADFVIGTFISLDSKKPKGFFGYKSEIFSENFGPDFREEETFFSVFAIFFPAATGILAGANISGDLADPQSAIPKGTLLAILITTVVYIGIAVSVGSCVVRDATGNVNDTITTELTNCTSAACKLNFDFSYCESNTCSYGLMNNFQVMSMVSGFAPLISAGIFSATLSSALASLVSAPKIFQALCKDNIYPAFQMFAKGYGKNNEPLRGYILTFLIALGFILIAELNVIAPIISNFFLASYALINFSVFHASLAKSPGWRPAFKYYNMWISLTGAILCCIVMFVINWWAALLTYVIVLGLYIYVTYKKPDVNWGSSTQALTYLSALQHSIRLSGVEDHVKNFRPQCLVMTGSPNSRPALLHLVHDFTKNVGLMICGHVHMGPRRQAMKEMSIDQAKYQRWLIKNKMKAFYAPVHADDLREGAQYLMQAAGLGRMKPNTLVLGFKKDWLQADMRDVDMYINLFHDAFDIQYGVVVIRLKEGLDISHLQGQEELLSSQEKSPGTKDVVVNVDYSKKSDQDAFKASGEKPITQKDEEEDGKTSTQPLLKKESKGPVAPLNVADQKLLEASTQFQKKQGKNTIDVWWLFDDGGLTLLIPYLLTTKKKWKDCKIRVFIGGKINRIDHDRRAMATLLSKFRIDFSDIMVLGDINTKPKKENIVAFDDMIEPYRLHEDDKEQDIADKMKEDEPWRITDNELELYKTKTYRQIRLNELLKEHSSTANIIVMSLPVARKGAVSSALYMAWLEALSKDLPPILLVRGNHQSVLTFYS
Source text: (§1) The 50% inhibitory concentration for Na^+ /K^+ /2Cl^- cotransport in vivo is decreased, in the case of the compound of Example 3, by about 60% relative to Torasemide (luminal membrane of the ascending branch of the loop of Henle in the nephron of perfused rabbits (Arzneim. Forsch. (1988) 38 (1a), 151-152)), and by 85% relative to Torasemide in the case of the compound of Example 10 (erythrocyte membrane in normotensive rats).
This decrease of the 50% inhibitory concentration of the Torasemide for Na^+ /K^+ /[…] co-transport (erythrocyte membrane in normotensive rats) reachs even 90% in the case of the compound of Example 18.

[4] = test system: Cl^- passage in the kidneys; assay: Inhibition of Cl- passage in the kidneys in vivo
Source text: The 50% inhibitory concentration for Cl^- passage in the kidneys in vivo is decreased, in the case of the compound of Example 8 by about 50% relative to Torasemide and in the case of the compound of Example 18 by 75%.

[5] = target: T2, Na^+ /K^+ /2Cl^- cotransport (Oryctolagus cuniculus, UniProt P55015); assay: Inhibition of Na+/K+/2Cl- cotransport, luminal membrane of the ascending branch of the loop of Henle in the nephron of perfused rabbits; details: in vivo
T2 construct: luminal membrane of the ascending branch of the loop of Henle in the nephron of perfused rabbits; from tissue; host or cells: rabbit nephron, ascending branch of the loop of Henle
T2 sequence (P55015 1-1099): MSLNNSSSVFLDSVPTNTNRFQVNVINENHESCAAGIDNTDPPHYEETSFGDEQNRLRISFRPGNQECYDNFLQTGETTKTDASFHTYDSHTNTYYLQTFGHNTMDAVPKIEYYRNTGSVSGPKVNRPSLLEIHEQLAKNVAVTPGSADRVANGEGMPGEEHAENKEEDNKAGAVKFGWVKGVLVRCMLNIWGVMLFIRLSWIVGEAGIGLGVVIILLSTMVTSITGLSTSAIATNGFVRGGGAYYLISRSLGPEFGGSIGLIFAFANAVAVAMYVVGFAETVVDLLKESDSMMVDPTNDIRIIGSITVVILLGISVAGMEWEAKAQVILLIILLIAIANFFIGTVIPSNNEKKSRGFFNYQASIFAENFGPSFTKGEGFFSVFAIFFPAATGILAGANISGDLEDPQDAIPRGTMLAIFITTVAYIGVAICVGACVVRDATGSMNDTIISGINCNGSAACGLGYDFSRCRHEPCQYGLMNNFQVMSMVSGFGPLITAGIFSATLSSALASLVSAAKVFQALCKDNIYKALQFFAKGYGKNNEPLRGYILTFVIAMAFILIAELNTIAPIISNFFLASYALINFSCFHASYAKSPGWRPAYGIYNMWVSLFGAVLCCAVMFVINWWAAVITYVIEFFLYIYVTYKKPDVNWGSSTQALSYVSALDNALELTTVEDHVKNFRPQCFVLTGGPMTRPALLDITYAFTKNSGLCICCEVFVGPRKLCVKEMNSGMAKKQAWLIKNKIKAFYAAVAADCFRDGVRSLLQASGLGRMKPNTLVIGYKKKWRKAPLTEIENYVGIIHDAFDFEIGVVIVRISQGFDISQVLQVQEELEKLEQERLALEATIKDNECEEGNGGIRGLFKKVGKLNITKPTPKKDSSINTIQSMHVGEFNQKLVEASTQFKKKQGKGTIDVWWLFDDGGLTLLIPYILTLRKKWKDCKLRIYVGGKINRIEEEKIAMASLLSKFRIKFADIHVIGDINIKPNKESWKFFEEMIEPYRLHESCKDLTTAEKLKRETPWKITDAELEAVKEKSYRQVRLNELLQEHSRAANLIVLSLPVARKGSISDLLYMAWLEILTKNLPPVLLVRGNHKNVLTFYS
Source text: as §1

## O=C(NC1CCCCCCC1)NS(=O)(=O)c1cnccc1NC1CCCCC1 [Example 7, N-((4-(cyclohexylamino)pyrid-3-yl)sulfonyl)-N'-cyclooctylurea]
[1]
  pKa: 9.13
[2]
  logD: 2.07

## Cc1cccc(Nc2ccncc2S(=O)(=O)NC(=O)NC(C)C)c1 [Torasemide, reference compound]
[1]
  pKa: 6.82
[2]
  logD: 0.449

## O=C(NC1CCCCCC1)NS(=O)(=O)c1cnccc1NC1CCCCCC1 [Example 18, N-((4-(cycloheptylamino)pyrid-3-yl)sulfonyl)-N'-cycloheptylurea]
[3]
  decrease of the 50% inhibitory concentration for Na+/K+/2Cl- cotransport relative to Torasemide: 90%
[4]
  decrease of the 50% inhibitory concentration for Cl- passage in the kidneys relative to Torasemide: 75%

## O=C(NC1CCCCC1)NS(=O)(=O)c1cnccc1NC1CCCCCCC1 [Example 10, N-((4-(cyclooctylamino)pyrid-3-yl)sulfonyl)-N'-cyclohexylurea]
[3]
  decrease of the 50% inhibitory concentration for Na+/K+/2Cl- cotransport relative to Torasemide: 85%
[1]
  pKa: 8.95
[2]
  logD: 2.06

## O=C(NC1CCCCCCC1)NS(=O)(=O)c1cnccc1NC1CCCCCCC1 [Example 3, N-((4-(cyclooctylamino)pyrid-3-yl)sulfonyl-N'-cyclooctylurea nitrate]
[1]
  pKa: 7.74
[5]
  decrease of the 50% inhibitory concentration for Na+/K+/2Cl- cotransport relative to Torasemide: about 60%
[2]
  logD: 2.7

## O=C(NC1CCCCCC1)NS(=O)(=O)c1cnccc1NC1CCCCCCC1 [Example 8, N-((4-(cyclooctylamino)pyrid-3-yl)sulfonyl)-N'-cycloheptylurea]
[1]
  pKa: 9.15
[4]
  decrease of the 50% inhibitory concentration for Cl- passage in the kidneys relative to Torasemide: about 50%
[2]
  logD: 2.45

## O=C(NC1CCCCC1)NS(=O)(=O)c1cnccc1NC1CCCCC1 [Example 1, N-((4(-cyclohexylamino)pyrid-3-yl)sulfonyl)-N'-cyclohexylurea]
[1]
  pKa: 9.02
[2]
  logD: 1.33

## O=C(NC1CCCCC1)NS(=O)(=O)c1cnccc1NC1CCCCCC1 [Example 2, N-((4-(cycloheptylamino)pyrid-3-yl)sulfonyl)-N'-cyclohexylurea]
[1]
  pKa: 9.39
[2]
  logD: 1.67
